Values after ≈ are worked out from the molar mass of the structure shown. Read-outs that look alike come from different tables or passages of the source.
Tested on: bacteria
Conditions: for MIC, Peptide: unmodified parent peptide
[1] = A. calcoaceticus AC002, agarose dilution
[2] = E. cloacae ECL007, agarose dilution
[3] = E. faecalis EFS001, agarose dilution
[4] = E. faecalis EFS008, agarose dilution
[5] = K. pneumoniae KP001, agarose dilution
[6] = P. aeruginosa PA004, agarose dilution
[7] = S. aureus SA014, agarose dilution
[8] = S. aureus SA093, agarose dilution
[9] = S. epidermidis SE010, agarose dilution
[10] = S. maltophilia SMA002, agarose dilution
[11] = S. marcescens SMS003, agarose dilution

Compound | MIC (E. faecalis EFS002) | MIC (A. calcoaceticus AC002) | MIC (E. cloacae ECL007) | MIC (E. coli ECO005) | MIC (K. pneumoniae KP001) | MIC (P. aeruginosa PA004) | MIC (A. calcoaceticus AC001) | MIC (K. pneumoniae KP002) | MIC (S. maltophilia SMA001) | MIC (S. marcescens SMS004) | MIC (S. maltophilia SMA002) | further results
CC[C@H](C)[C@H](NC(=O)[C@H](CC(C)C)NC(=O)[C@H](C)NC(=O)[C@@H]1CCCN1C(=O)[C@H](CC(C)C)NC(=O)CNC(=O)[C@@H](NC(=O)[C@@H](NC(=O)[C@H](CC(C)C)NC(=O)[C@@H](NC(=O)[C@H](CCCCN)NC(=O)[C@H](CCCCN)NC(=O)[C@@H](NC(=O)[C@H](C)NC(=O)[C@@H](NC(=O)[C@@H](NC(=O)[C@H](CC(C)C)NC(=O)[C@H](CCCCN)NC(=O)[C@H](CCCCN)NC(=O)[C@@H](NC(=O)[C@H](Cc1ccccc1)NC(=O)[C@H](CO)NC(=O)[C@H](CCCCN)NC(=O)[C@H](Cc1c[nH]c2ccccc12)NC(=O)[C@@H](N)CCCCN)[C@@H](C)CC)[C@@H](C)O)[C@@H](C)O)C(C)C)C(C)C)[C@@H](C)O)[C@@H](C)O)C(=O)N[C@@H](CO)C(=O)O [MBI29] |  |  |  |  |  |  |  |  |  |  |  | MIC, Peptide [1]: 1 µg/mL (≈ 0.348 µM); MIC, Peptide [2]: >64 µg/mL; MIC, Peptide (E. coli EC0005, agarose dilution): 4 µg/mL (≈ 1.39 µM); MIC, Peptide [3]: 0.5 µg/mL (≈ 0.174 µM); MIC, Peptide [4]: 0.5 µg/mL (≈ 0.174 µM); MIC, Peptide [5]: 2 µg/mL (≈ 0.696 µM); MIC, Peptide [6]: 16 µg/mL (≈ 5.57 µM); MIC, Peptide [7]: 1 µg/mL (≈ 0.348 µM); MIC, Peptide [8]: 0.5 µg/mL (≈ 0.174 µM); MIC, Peptide [9]: 4 µg/mL (≈ 1.39 µM); MIC, Peptide [10]: 2 µg/mL (≈ 0.696 µM); MIC, Peptide [11]: >128 µg/mL
I L K K F P F W P W R R K [MBI 11A7CN] | 16 µg/mL |  |  |  |  |  |  |  |  |  |  | MIC [1]: 4 µg/mL; MIC [2]: >128 µg/mL; MIC (E. coli ECO005, agarose dilution): 8 µg/mL; MIC [3]: 2 µg/mL; MIC [4]: 4 µg/mL; MIC (E. faecium EFM003): 2 µg/mL; MIC [5]: 8 µg/mL; MIC [6]: >128 µg/mL; MIC (S. aureus SA009): 2 µg/mL; MIC [7]: 4 µg/mL; MIC [8]: 1 µg/mL; MIC [9]: 4 µg/mL; MIC [10]: 64 µg/mL; MIC [11]: >28 µg/mL
I L K K F P W F P W R R K [MBI 11A6CN] |  | 2 µg/mL | >128 µg/mL | 16 µg/mL | 32 µg/mL | >128 µg/mL |  |  |  |  |  | MIC (E. faecalis EFS001): 1 µg/mL; MIC (E. faecalis EFS004): 64 µg/mL; MIC (E. faecalis EFS008): 8 µg/mL; MIC (E. faecium EFM003): 2 µg/mL; MIC (S. aureus SA014): 4 µg/mL; MIC (S. aureus SA016): 2 µg/mL
I L K K I P I I P I R R K [MBI 11A2CN] | >128 µg/mL |  | >128 µg/mL |  |  | >128 µg/mL | >128 µg/mL | >128 µg/mL | >128 µg/mL |  |  | MIC (E. coli ECO003): >128 µg/mL; MIC (E. faecium EFM003): 16 µg/mL; MIC (S. aureus SA004): 8 µg/mL; MIC (S. marcescens SMS003): >128 µg/mL
I L K K P W W P W R R K [MBI 11G3CN] | 64 µg/mL |  | >128 µg/mL |  | >128 µg/mL |  |  |  | >128 µg/mL | >128 µg/mL |  | MIC (E. coli ECO003): 64 µg/mL; MIC (E. faecium EFM002): 32 µg/mL; MIC (P. aeruginosa PA003): >128 µg/mL; MIC (S. aureus SA009): 8 µg/mL
I L K K W P W P W R R K [MBI 11A4CN] | 64 µg/mL | 8 µg/mL | >128 µg/mL |  | >128 µg/mL | >128 µg/mL |  |  |  | >128 µg/mL | >128 µg/mL | MIC (E. coli ECO003): 32 µg/mL; MIC (E. faecium EFM001): 32 µg/mL; MIC (S. aureus SA005): 2 µg/mL; MIC (S. epidermidis SE002): 8 µg/mL
I L K K W P W W A W R R K [MBI 11C4CN] | 32 µg/mL | 4 µg/mL | >128 µg/mL | 32 µg/mL | >128 µg/mL |  |  |  |  | >128 µg/mL | 64 µg/mL | MIC (E. faecium EFM003): 2 µg/mL; MIC (P. aeruginosa PA005): >128 µg/mL; MIC (S. aureus SA009): 4 µg/mL; MIC (S. epidermidis SE002): 4 µg/mL
I L K K W P W W P R R K [MBI 11G6ACN] |  | 4 µg/mL |  | 64 µg/mL |  |  |  |  |  |  | >128 µg/mL | MIC (E. faecalis EFS008): >128 µg/mL; MIC (S. aureus SA014): 64 µg/mL; MIC (S. epidermidis SE010): 32 µg/mL
I L K K W P W W P W R K [MBI 11B4ACN] |  | 4 µg/mL | >128 µg/mL | 32 µg/mL | 32 µg/mL | >128 µg/mL |  |  |  |  | 64 µg/mL | MIC (E. faecalis EFS008): 64 µg/mL; MIC (S. aureus SA008): 1 µg/mL; MIC (S. epidermidis SE010): 8 µg/mL; MIC (S. marcescens SMS003): >128 µg/mL
ILKKWPWWPWRRIMILKKAGS [MBI 11D6CN] | 4 µg/mL | 4 µg/mL | >32 µg/mL |  |  |  |  | >64 µg/mL | >64 µg/mL | >64 µg/mL |  | MIC (E. coli ECO002): 32 µg/mL; MIC (E. faecium EFM003): 1 µg/mL; MIC (P. aeruginosa PA024): >64 µg/mL; MIC (S. aureus SA009): 8 µg/mL; MIC (S. epidermidis SE010): 4 µg/mL
I L K K W P W W P W R R I M [MBI 11D13H] |  |  | >64 µg/mL |  |  | >64 µg/mL | 64 µg/mL | >64 µg/mL |  | >64 µg/mL | >64 µg/mL | MIC (E. coli ECO002): 32 µg/mL; MIC (E. faecalis EFS004): 16 µg/mL; MIC (S. aureus SA025): 4 µg/mL
ILKKWPWWPWRRKMILKKAGS [MBI 11D4CN] | 16 µg/mL |  | >64 µg/mL |  |  | >64 µg/mL | >64 µg/mL | >64 µg/mL | >64 µg/mL | >64 µg/mL |  | MIC (E. coli ECO003): 64 µg/mL; MIC (E. faecium EFM002): 1 µg/mL; MIC (S. aureus SA009): 4 µg/mL
I L K K W P W W P W R R K M [MBI 11D11H] |  |  | >64 µg/mL |  | >64 µg/mL |  | >64 µg/mL |  |  | >64 µg/mL | >64 µg/mL | MIC (E. coli ECO002): 32 µg/mL; MIC (P. aeruginosa PA001): >64 µg/mL; MIC (S. aureus SA008): 4 µg/mL
I L K K W P W W P W R R K [MBI 11ACN] |  | 2 µg/mL | >128 µg/mL | 16 µg/mL | 16 µg/mL | >128 µg/mL |  |  |  |  | 64 µg/mL | MIC (E. faecalis EFS004): 8 µg/mL; MIC (E. faecalis EFS008): 64 µg/mL; MIC (S. aureus SA014): 8 µg/mL; MIC (S. epidermidis SE010): 4 µg/mL; MIC (S. marcescens SMS003): >128 µg/mL
I L K K W P W W P W R R K [MBI 11A] |  |  | >64 µg/mL | >64 µg/mL | 64 µg/mL |  | >64 µg/mL |  |  |  | >64 µg/mL | MIC (E. faecalis EFS004): 32 µg/mL; MIC (P. aeruginosa PA024): >64 µg/mL; MIC (S. aureus SA002): 4 µg/mL; MIC (S. marcescens SMS003): >64 µg/mL
I L K K W P W W P W R R K [MBI 11CNW1] |  | 8 µg/mL | 64 µg/mL | 32 µg/mL | 32 µg/mL | 64 µg/mL |  |  |  |  | 32 µg/mL | MIC (E. faecalis EFS001): 8 µg/mL; MIC (S. aureus SA010): 4 µg/mL; MIC (S. marcescens SMS003): >128 µg/mL
I L K K W P W W P W R R K [MBI 11CNX1] |  |  | >64 µg/mL | 64 µg/mL | >64 µg/mL |  | >64 µg/mL |  |  |  | >64 µg/mL | MIC (E. faecalis EFS004): 16 µg/mL; MIC (P. aeruginosa PA024): >64 µg/mL; MIC (S. aureus SA006): 2 µg/mL; MIC (S. marcescens SMS003): >64 µg/mL
I L K K W P W W P W R R K [MBI 11M4] |  |  |  |  |  |  |  |  |  |  |  | MIC (E. faecalis EFS001): 32 µg/mL; MIC (E. faecium EFM001): 32 µg/mL; MIC (S. aureus SA008): 8 µg/mL
I L K K W P W W P W R R K [MBI 11M8] | 32 µg/mL |  |  |  |  |  |  |  |  |  |  | MIC (E. faecium EFM002): 32 µg/mL; MIC (S. aureus SA008): 32 µg/mL
ILKKWPWWPWRRMILKKAGS [MBI 11D5CN] | 16 µg/mL |  | >64 µg/mL |  | >64 µg/mL |  | >64 µg/mL |  | 64 µg/mL | >64 µg/mL |  | MIC (E. coli ECO003): 64 µg/mL; MIC (E. faecium EFM003): 1 µg/mL; MIC (P. aeruginosa PA003): >64 µg/mL; MIC (S. aureus SA005): 8 µg/mL
I L K K W P W W P W R R M [MBI 11D12H] |  |  | >64 µg/mL |  |  | >64 µg/mL | >64 µg/mL | >64 µg/mL |  | >64 µg/mL | >64 µg/mL | MIC (E. coli ECO003): 64 µg/mL; MIC (E. faecalis EFS004): 16 µg/mL; MIC (S. aureus SA014): 16 µg/mL
I L K K W P W W P W R R [MBI 11G7ACN] |  | 4 µg/mL | >32 µg/mL |  |  |  |  | >32 µg/mL | 32 µg/mL | >32 µg/mL |  | MIC (E. coli ECO002): 16 µg/mL; MIC (E. faecalis EFS008): 32 µg/mL; MIC (E. faecium EFM001): 8 µg/mL; MIC (P. aeruginosa PA006): >32 µg/mL; MIC (S. aureus SA010): 1 µg/mL; MIC (S. epidermidis SE002): 4 µg/mL
I L K K W P W W P W R R k [MBI 11E2CN] | 32 µg/mL | 4 µg/mL | >128 µg/mL |  |  |  |  | 64 µg/mL | 64 µg/mL | >128 µg/mL |  | MIC (E. coli ECO002): 8 µg/mL; MIC (E. faecium EFM001): 16 µg/mL; MIC (P. aeruginosa PA001): >128 µg/mL; MIC (S. aureus SA016): 2 µg/mL; MIC (S. epidermidis SE010): 4 µg/mL
